Data on 22 molecules can be found in US9796706B2, “Inhibitors of Jun N-terminal kinase” (IMAGO PHARMACEUTICALS, INC., priority 2009, dated 2017).

Common to all, as to format: biochemical
Holding throughout (conditions): procedures of Example 14 (TR-FRET)
In general terms: TR-FRET usually uses a lanthanide donor and a delayed reading to cut background.

For one experiment, the target named is JNK3 (Homo sapiens (Human), UniProt P53779). Kind of experiment: JNK3 TR-FRET kinase assay (Example 14). The method in brief:
(§1)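 Two TR-FRET formats were used for each JNK isoform. In the direct one, preactivated aJNK phosphorylated EPIW-1 at about 1 mM final ATP (RT, 15 min). Both were EDTA-quenched and read by HTRF.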

The next experiment deals with JNK2 (Homo sapiens (Human), UniProt P45984). Kind of experiment: JNK2 TR-FRET kinase assay (Example 14). The method in brief:
as §1

Another experiment deals with JNK1 (Homo sapiens (Human), UniProt P45983). In words: JNK1 TR-FRET kinase assay (Example 14). The method in brief:
as §1

Sequence of JNK3 (P53779 whole entry, species assumed, canonical isoform): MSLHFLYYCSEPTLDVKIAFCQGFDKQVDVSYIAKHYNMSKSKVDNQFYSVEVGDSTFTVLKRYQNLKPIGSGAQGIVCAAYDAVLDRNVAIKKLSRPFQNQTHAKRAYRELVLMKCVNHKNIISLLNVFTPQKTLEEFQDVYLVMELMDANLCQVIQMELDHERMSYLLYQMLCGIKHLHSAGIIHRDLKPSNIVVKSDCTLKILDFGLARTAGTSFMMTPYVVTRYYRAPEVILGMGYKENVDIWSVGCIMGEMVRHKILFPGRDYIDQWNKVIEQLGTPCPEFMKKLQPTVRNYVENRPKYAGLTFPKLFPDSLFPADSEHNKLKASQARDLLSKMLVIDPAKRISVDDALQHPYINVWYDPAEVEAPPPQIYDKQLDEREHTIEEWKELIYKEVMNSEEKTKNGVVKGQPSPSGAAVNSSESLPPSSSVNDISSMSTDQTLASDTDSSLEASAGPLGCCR
Sequence of JNK1 (P45983 other isoform, or with tags, fused parts or gaps isoform P45983-2, species assumed): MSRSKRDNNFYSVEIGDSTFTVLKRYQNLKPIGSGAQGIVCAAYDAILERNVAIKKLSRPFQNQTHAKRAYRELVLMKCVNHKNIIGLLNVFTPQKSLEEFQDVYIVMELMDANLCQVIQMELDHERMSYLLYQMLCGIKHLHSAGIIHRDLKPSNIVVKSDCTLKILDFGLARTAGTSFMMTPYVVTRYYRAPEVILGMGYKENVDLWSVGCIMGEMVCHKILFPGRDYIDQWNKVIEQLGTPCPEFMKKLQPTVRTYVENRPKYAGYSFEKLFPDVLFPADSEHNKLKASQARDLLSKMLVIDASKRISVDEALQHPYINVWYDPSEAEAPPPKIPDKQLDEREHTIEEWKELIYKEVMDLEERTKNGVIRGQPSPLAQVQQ
Sequence of JNK2 (P45984 whole entry, species assumed): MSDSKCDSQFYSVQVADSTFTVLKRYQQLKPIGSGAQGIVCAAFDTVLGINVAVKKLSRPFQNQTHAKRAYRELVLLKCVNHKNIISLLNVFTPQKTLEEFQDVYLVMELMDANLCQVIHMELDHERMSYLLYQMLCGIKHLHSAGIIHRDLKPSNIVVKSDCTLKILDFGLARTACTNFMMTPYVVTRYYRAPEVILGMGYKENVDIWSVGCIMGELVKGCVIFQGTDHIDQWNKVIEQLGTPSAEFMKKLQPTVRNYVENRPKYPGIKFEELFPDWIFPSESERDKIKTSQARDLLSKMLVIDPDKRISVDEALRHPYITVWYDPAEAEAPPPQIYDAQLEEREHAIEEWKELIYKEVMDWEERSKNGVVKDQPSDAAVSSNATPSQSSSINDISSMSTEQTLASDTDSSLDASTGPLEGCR

One may read the IC50 as the concentration at which inhibition is half-maximal. High values mean weaker potency in that assay, low ones greater potency in that assay. On to `Cn1cnc(-c2c(C#N)csc2NC(=O)CN2C(=O)CCc3ncccc32)n1` [N-(4-cyano-3-(1-methyl-1H-1,2,4-triazol-3-yl)thiophen-2-yl)-2-(2-oxo-3,4-dihydro-1,5-naphthyridin-1(2H)-yl)acetamide], for which the IC50 against JNK3, at JNK2 and against JNK1 was less than 100 nM throughout.
For `N#Cc1csc(NC(=O)Cc2cccc3ncccc23)c1-c1cnccn1` [N-(4-cyano-3-(pyrazin-2-yl)thiophen-2-yl)-2-(quinolin-5-yl)acetamide], the IC50 against JNK3 was less than 100 nM; against JNK2 it was 100 to 10000 nM; at JNK1 it was less than 100 nM.
Turning to `N#Cc1ccc2c(ccc(=O)n2CC(=O)Nc2scc(Cl)c2-c2nc[nH]n2)c1` [N-(4-chloro-3-(1H-1,2,4-triazol-3-yl)thiophen-2-yl)-2-(6-cyano-2-oxoquinolin-1(2H)-yl)acetamide], the IC50 on JNK3, against JNK2 and on JNK1 was less than 100 nM throughout.
Turning to `O=C(Cn1c(=O)ccc2cc(OC(F)(F)F)ccc21)Nc1scc(Br)c1-c1ncn[nH]1` [N-(4-bromo-3-(1H-1,2,4-triazol-5-yl)thiophen-2-yl)-2-(2-oxo-6-(trifluoromethoxy)quinolin-1(2H)-yl)acetamide], the IC50 against JNK3, against JNK2 and against JNK1 was less than 100 nM each time.
Regarding `COc1ccc(CC(=O)Nc2ccsc2-c2ncn[nH]2)cc1` [N-(2-(1H-1,2,4-triazol-5-yl)thiophen-3-yl)-2-(4-methoxyphenyl)acetamide], the IC50 at JNK3, on JNK2 and against JNK1 was 100 to 10000 nM in each case.
Turning to `O=C(Cc1ccc2ccc(C(F)(F)F)nc2c1)Nc1scc(Br)c1-c1nc[nH]n1` [N-(4-bromo-3-(1H-1,2,4-triazol-3-yl)thiophen-2-yl)-2-(2-(trifluoromethyl)quinolin-7-yl)acetamide], the IC50 against JNK3, on JNK2 and on JNK1 was 100 to 10000 nM in each case.
In the case of `COc1ccc(CC(=O)Nc2scc(C)c2-c2nc(C)n[nH]2)cc1` [2-(4-methoxyphenyl)-N-(4-methyl-3-(3-methyl-1H-1,2,4-triazol-5-yl)thiophen-2-yl)acetamide], the IC50 at JNK3, at JNK2 and on JNK1 was 100 to 10000 nM each time.
Consider `Cc1csc(NC(=O)Cc2ccc(OCCn3ccnc3)cc2)c1-c1ncn[nH]1` [2-(4-(2-(1H-imidazol-1-yl)ethoxy)phenyl)-N-(4-methyl-3-(1H-1,2,4-triazol-5-yl)thiophen-2-yl)acetamide], for which the IC50 on JNK3, against JNK2 and against JNK1 was 100 to 10000 nM throughout.
Take `O=C(CN1C(=O)C(F)(F)c2ccccc21)Nc1scc(Br)c1-c1nnc[nH]1` [N-(4-bromo-3-(4H-1,2,4-triazol-3-yl)thiophen-2-yl)-2-(3,3-difluoro-2-oxoindolin-1-yl)acetamide]: the IC50 on JNK3 was 100 to 10000 nM; on JNK2 it was 100 to 10000 nM; at JNK1, less than 100 nM.
As for `O=C(Cc1cccc2cnccc12)Nc1scnc1-c1cnccn1` [2-(isoquinolin-5-yl)-N-(4-(pyrazin-2-yl)thiazol-5-yl)acetamide], the IC50 against JNK3, on JNK2 and against JNK1 was 100 to 10000 nM throughout.
For the molecule `Cn1cnc(-c2c(Cl)csc2NC(=O)Cn2c(=O)ccn3nc(C(F)(F)F)cc23)n1` [N-(4-chloro-3-(1-methyl-1H-1,2,4-triazol-3-yl)thiophen-2-yl)-2-(5-oxo-2-(trifluoromethyl)pyrazolo[1,5-a]pyrimidin-4(5H)-yl)acetamide], the IC50 on JNK3, at JNK2 and against JNK1 was less than 100 nM each time.
For the molecule `O=C(Cc1cccc2ccccc12)Nc1ccsc1-n1ccnc1` [N-(2-(1H-imidazol-1-yl)thiophen-3-yl)2-(naphthalen-1-yl)acetamide], the IC50 against JNK3 is 100 to 10000 nM; against JNK2 it was more than 50000 nM; against JNK1 it was more than 10000 nM.
The corresponding values for `O=C(CN1C(=O)CCc2ccccc21)Nc1sccc1-c1ncn[nH]1` [N-(3-(1H-1,2,4-triazol-5-yl)thiophen-2-yl)-2-(2-oxo-3,4-dihydroquinolin-1(2H)-yl)acetamide] are 100 to 10000 nM, 100 to 10000 nM and less than 100 nM.
The matching figures for `O=C(Cn1c(=O)ccc2cc(C(F)(F)F)c(F)cc21)Nc1scc(Br)c1-c1ncn[nH]1` [N-(4-bromo-3-(1H-1,2,4-triazol-5-yl)thiophen-2-yl)-2-(7-fluoro-2-oxo-6-(trifluoromethyl)quinolin-1(2H)-yl)acetamide]: less than 100 nM, less than 100 nM and less than 100 nM.
Consider `N#Cc1csc(NC(=O)Cn2c(=O)ccc3cc(C(F)(F)F)ccc32)c1-c1nccs1` [N-(4-cyano-3-(thiazol-2-yl)thiophen-2-yl)-2-(2-oxo-6-(trifluoromethyl)quinolin-1(2H)-yl)acetamide], for which the IC50 at JNK3, at JNK2 and against JNK1 was less than 100 nM in each case.
Turning to `O=C(Cc1cccc2cnccc12)Nc1scc(Br)c1-c1ncn[nH]1` [N-(4-bromo-3-(1H-1,2,4-triazol-5-yl)thiophen-2-yl)-2-(isoquinolin-5-yl)acetamide], the half-maximal inhibitory concentration (IC50) on JNK3, at JNK2 and at JNK1 was less than 100 nM throughout.
On to `COc1ccc(CC(=O)Nc2ccsc2-n2nccn2)cc1` [N-(2-(2H-1,2,3-triazol-2-yl)thiophen-3-yl)-2-(4-methoxyphenyl)acetamide], for which the IC50 against JNK3, against JNK2 and at JNK1 was 100 to 10000 nM throughout.
For the molecule `O=C(Cn1c(=O)ccc2cc(Br)ccc21)Nc1scc(Cl)c1-c1nc[nH]n1` [2-(6-bromo-2-oxoquinolin-1(2H)-yl)-N-(4-chloro-3-(1H-1,2,4-triazol-3-yl)thiophen-2-yl)acetamide], the IC50 against JNK3, on JNK2 and against JNK1 was less than 100 nM each time.
For `COc1ccc(CC(=O)Nc2ccsc2-c2nc(C(F)(F)F)n[nH]2)cc1` [2-(4-methoxyphenyl)-N-(2-(3-(trifluoromethyl)-1H-1,2,4-triazol-5-yl)thiophen-3-yl)acetamide], the IC50 against JNK3 was 100 to 10000 nM; on JNK2, more than 10000 nM; against JNK1 it was 100 to 10000 nM.
As to `Cc1noc(-c2c(C)csc2NC(=O)Cc2cccc3ccccc23)n1` [N-(4-methyl-3-(3-methyl-1,2,4-oxadiazol-5-yl)thiophen-2-yl)-2-(naphthalen-1-yl)acetamide], the IC50 against JNK3, against JNK2 and at JNK1 was 100 to 10000 nM each time.
As to `COc1nc(-c2sccc2NC(=O)Cc2cccc3cnccc23)cs1` [2-(isoquinolin-5-yl)-N-(2-(2-methoxythiazol-4-yl)thiophen-3-yl)acetamide], the values for the IC50 against JNK3, against JNK2 and at JNK1 were 100 to 10000 nM, more than 10000 nM and 100 to 10000 nM, respectively.
For `COc1ccc(CC(=O)Nc2ccsc2-c2nnc(C)o2)cc1` [2-(4-methoxyphenyl)-N-(2-(5-methyl-1,3,4-oxadiazol-2-yl)thiophen-3-yl)acetamide], the figures for the IC50 on JNK3, against JNK2 and against JNK1 were 100 to 10000 nM, more than 50000 nM and 100 to 10000 nM, respectively.
